Test results taken from patent publication US20250304587A1, “WEE1 INHIBITOR, PREPARATION THEREFOR AND USE THEREOF” (JIANGSU TASLY DIYI PHARMACEUTICAL CO., LTD., priority 2022, published 2025).
Where two headings read alike, the source gives them in different places.

Experiments:
BxPC3 cells = assay: Cell Titer-Glo anti-proliferation, BxPC3 cells; assay type: cell-based, human; details: Homo sapiens, BXPC-3, 72 h, 3 days, read-out: Anti-proliferative activity BxPC3 (IC50 class)
Method in brief: (§1)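 Each line was exposed to graded compound concentrations for 3 days at 37 °C, 5% CO2, with final DMSO at 0.2%. Viability was measured by Cell Titer-Glo luminescence, with untreated cells as the maximum and medium as the minimum signal. IC50 came from a variable-slope log(inhibitor)-response fit.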

HT-29 cells = assay: Cell Titer-Glo anti-proliferation, HT-29 cells; assay type: cell-based, human; details: Homo sapiens, HT-29, 72 h, 3 days, read-out: Anti-proliferative activity HT-29 (IC50 class)
Method in brief: as §1

OVCAR-3 cells = assay: Cell Titer-Glo anti-proliferation, OVCAR-3 cells; assay type: cell-based; details: Homo sapiens, OVCAR-3, 72 h, 3 days, read-out: Anti-proliferative activity OVCAR-3 (IC50 class)
Method in brief: as §1

HUVEC cells = assay: Cell Titer-Glo anti-proliferation, normal cells HUVEC; assay type: cell-based; details: Homo sapiens, HUVEC
Method in brief: (§2)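 Cells were exposed to serial compound concentrations (0.2% DMSO final) for 3 days at 37 °C, 5% CO2, then lysed with Cell Titer-Glo and read by luminescence. Inhibition was referenced to untreated-cell and medium-only controls, and IC50 came from a four-parameter variable-slope log(inhibitor)–response fit.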

HK2 cells = assay: Cell Titer-Glo anti-proliferation, normal cells HK2; assay type: cell-based; details: Homo sapiens, HK-2
Method in brief: as §2

[1] = Plasma protein binding (equilibrium dialysis), rat; assay type: in vitro ADME; details: 5 h dialysis, read-out: Plasma Protein binding (PPB) Rat (converted)
[2] = Plasma protein binding (equilibrium dialysis), human; assay type: in vitro ADME; details: 5 h dialysis, read-out: Plasma Protein binding (PPB) Human (converted)
CYP1A2 = CYP1A2 (Homo sapiens (Human), UniProt P05177); assay: Cytochrome P450 inhibition (fluorescence), CYP1A2; assay type: in vitro ADME; details: read-out: IC50 CYP1A2
CYP1A2, sequence (P05177 whole entry, canonical isoform): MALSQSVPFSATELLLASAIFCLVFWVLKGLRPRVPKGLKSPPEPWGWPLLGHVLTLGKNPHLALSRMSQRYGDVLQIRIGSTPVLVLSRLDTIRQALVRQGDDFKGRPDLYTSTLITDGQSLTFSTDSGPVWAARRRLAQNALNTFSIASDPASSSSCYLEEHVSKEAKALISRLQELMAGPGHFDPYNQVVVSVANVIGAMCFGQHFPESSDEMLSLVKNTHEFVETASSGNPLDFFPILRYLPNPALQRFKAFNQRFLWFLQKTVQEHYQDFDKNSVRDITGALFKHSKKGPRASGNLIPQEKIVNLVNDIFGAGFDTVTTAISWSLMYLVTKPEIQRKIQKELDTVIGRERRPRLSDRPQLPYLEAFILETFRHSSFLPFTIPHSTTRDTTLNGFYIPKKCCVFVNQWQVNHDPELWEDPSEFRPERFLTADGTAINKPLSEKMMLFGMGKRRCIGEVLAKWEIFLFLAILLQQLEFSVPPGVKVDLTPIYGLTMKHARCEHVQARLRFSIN
Description: (§3) Enzymatic experiments were performed to quantify the inhibition of CYP450 enzyme activity of each isoform of CYP450 by small molecule inhibitors through fluorescence generated by the oxidation of the substrate by cytochrome P450. […] The Solution B composition used for the experiment was: 40 U/mL G6PDH (Sigma-aldrich, Cat #G6378). The substrate mix was 0.05× Solution A, 0.01× Solution B, 50 mM Potassium Phosphate, 0.01 mM BOMCC/0.01 mM EOMCC/0.001 mM DBOMF. […] The data were analyzed and processed using GraphPad Prism 6 software to obtain IC50 values.

CYP2C9 = CYP2C9 (Homo sapiens (Human), UniProt P11712); assay: Cytochrome P450 inhibition (fluorescence), CYP2C9; assay type: in vitro ADME; details: read-out: IC50 CYP2C9
CYP2C9, sequence (P11712 whole entry): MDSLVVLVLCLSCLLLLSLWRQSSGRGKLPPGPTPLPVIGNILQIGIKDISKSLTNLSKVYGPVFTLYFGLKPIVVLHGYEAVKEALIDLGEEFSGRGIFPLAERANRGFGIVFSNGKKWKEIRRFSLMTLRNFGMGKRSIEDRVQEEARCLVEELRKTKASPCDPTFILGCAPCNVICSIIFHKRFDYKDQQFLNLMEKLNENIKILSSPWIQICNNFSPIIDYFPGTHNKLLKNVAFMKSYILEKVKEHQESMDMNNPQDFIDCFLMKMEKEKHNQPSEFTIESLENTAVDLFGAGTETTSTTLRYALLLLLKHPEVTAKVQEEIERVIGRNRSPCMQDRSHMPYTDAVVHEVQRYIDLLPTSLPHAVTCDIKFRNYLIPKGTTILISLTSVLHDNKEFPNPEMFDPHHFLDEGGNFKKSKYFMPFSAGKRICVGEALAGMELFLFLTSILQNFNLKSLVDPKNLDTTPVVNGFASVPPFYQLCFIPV
Description: as §3

CYP2C19 = CYP2C19 (Homo sapiens (Human), UniProt P33261); assay: Cytochrome P450 inhibition (fluorescence), CYP2C19; assay type: in vitro ADME; details: read-out: IC50 CYP2C19
CYP2C19, sequence (P33261 whole entry): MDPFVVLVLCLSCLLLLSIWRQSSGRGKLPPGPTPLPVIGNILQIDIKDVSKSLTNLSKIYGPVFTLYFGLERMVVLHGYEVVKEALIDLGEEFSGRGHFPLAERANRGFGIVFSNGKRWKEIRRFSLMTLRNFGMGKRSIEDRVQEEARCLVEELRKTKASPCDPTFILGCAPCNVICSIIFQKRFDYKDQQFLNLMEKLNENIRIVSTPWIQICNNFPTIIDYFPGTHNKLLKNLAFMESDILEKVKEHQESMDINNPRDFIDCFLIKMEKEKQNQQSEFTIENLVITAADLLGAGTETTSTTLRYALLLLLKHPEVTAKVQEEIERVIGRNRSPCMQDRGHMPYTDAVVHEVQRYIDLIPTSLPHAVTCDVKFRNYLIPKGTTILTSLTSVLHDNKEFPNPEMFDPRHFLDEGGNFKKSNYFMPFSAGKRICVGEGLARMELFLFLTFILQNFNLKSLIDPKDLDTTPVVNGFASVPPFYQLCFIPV
Description: as §3

CYP2D6 = CYP2D6 (Homo sapiens (Human), UniProt P10635); assay: Cytochrome P450 inhibition (fluorescence), CYP2D6; assay type: in vitro ADME; details: read-out: IC50 CYP2D6
CYP2D6, sequence (P10635 whole entry): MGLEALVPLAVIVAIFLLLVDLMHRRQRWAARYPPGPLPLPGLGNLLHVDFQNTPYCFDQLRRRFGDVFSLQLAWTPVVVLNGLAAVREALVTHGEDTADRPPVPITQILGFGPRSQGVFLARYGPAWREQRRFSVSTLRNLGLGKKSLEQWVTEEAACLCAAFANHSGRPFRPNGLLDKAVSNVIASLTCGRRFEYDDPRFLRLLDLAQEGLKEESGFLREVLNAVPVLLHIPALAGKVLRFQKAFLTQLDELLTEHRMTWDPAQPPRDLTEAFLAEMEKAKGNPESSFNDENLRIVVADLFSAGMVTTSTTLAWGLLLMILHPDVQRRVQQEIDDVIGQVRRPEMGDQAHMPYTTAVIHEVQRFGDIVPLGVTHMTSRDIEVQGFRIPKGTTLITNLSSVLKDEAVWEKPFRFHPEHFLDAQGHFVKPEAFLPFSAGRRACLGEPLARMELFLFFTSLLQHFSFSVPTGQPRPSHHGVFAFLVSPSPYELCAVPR
Description: as §3

CYP2C8 = CYP2C8 (Homo sapiens (Human), UniProt P10632); assay: Cytochrome P450 inhibition (fluorescence), CYP2C8; assay type: in vitro ADME; details: read-out: IC50 CYP2C8
CYP2C8, sequence (P10632 whole entry): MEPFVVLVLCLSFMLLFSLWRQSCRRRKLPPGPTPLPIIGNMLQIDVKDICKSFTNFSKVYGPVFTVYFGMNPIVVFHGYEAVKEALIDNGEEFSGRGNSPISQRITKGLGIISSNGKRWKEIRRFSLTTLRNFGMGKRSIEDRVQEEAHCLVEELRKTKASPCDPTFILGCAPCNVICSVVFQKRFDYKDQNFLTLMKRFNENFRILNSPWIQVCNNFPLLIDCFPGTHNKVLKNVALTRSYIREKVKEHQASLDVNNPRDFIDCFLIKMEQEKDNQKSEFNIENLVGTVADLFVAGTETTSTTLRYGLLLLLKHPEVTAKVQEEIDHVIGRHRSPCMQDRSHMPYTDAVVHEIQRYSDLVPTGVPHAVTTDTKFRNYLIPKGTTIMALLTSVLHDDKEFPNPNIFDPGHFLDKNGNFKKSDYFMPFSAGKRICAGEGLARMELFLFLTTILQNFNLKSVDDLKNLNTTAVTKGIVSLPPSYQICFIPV
Description: as §3

CYP 2B6 = CYP 2B6 (Homo sapiens (Human), UniProt P20813); assay: Cytochrome P450 inhibition, CYP2B6; assay type: in vitro ADME
CYP 2B6, sequence (P20813 whole entry): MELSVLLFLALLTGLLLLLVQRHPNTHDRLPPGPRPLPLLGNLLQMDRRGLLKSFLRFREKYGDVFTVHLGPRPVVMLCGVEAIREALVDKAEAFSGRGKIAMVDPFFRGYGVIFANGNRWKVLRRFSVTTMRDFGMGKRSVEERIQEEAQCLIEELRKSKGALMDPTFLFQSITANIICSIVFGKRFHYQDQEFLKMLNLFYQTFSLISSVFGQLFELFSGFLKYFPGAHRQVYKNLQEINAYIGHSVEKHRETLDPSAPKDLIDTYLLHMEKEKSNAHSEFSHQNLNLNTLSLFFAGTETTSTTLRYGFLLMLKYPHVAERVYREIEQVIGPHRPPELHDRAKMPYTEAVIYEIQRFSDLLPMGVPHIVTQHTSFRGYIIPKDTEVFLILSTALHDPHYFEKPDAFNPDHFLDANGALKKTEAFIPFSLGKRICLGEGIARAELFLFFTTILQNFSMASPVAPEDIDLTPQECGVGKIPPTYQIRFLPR
Description: as §3

[3] = SD, rat, in vivo, 14 days
[4] = Plasma protein binding (equilibrium dialysis), mouse; details: mouse, plasma
Description: (§4) Sample preparation: The compound was dissolved in DMSO to a stock solution of 10 mM, then the compound was diluted with PBS to a secondary stock solution of 0.02 mM, and then the above 0.02 mM was diluted to 1 μM using blank plasma, which was the sample to be incubated.
(§5) Dialysis set-up preparation: 400 μL of blank PBS was first added to the white wells of the equilibrated dialysis plate and 200 μL of the configured plasma sample was added to the red wells, and the dialysis plate was sealed with a sealing film.
(§6) Recovery plate preparation: Two 96-well deep-well plates, labelled T0 and T5, were prepared and all plasma samples were added at n=2. 300 μL of acetonitrile (Verapamil-HCl, 4 ng/mL) was added directly to the TO plate, followed by 50 μL of blank PBS mix well for 5 min and left to stand in a 4° C. refrigerator until the end of the incubation.
(§7) Experimental Operation: The dialysis device and the T5 plate were incubated together for 5 h in a microplate thermostatic shaker (37° C., using 300 rpm or minimum speed). At the end of the incubation, 300 μL of acetonitrile (Verapamil-HCl, 4 ng/mL) was added and 50 μL of PBS solution was added. At the end of the dialysis incubation, a new 96-well deep well plate was taken. Add 50 μL of plasma well sample to the corresponding position of the 96-well plate, 300 μL of acetonitrile and 50 μL of blank PBS; take 50 μL of buffer well sample to the corresponding position of the 96-well plate, then add 300 μL of acetonitrile and 50 μL of blank plasma. Add 300 μL of acetonitrile (Verapamil-HCl, 4 ng/mL) to the plasma-containing wells of the T5 plate, and then 50 μL of PBS solution was added. Shake for 5 min to fully precipitate the proteins and centrifuge at 20,000 g for 10 min at 4° C. Add 200 μL of supernatant to 200 μL of pure water, mix well and perform LC-MS/MS analysis.
(§8) • Plasma protein binding rate=[(Rpe−Rb)/Rpe]×100% • Recovery=[(Rpe+Rb)/R5 h]×100% • Stability=(R5/R0)×100%
(§9) • Rpe=ratio of plasma-side testing sample peak area to internal standard • Rb=ratio of buffer side testing sample peak area to internal standard • R5=ratio of incubator stability sample peak area to internal standard • R0=ratio of refrigerator stability sample peak area to internal standard

plasma protein [5] = assay: Plasma protein binding (equilibrium dialysis), rat; assay type: in vitro ADME; details: 1 μM, 5 h dialysis
plasma protein [6] = assay: Plasma protein binding (equilibrium dialysis), human; assay type: in vitro ADME; details: 1 μM, 5 h dialysis
plasma protein [7] = assay: Plasma protein binding (equilibrium dialysis), mouse; details: mouse plasma, 1 μM, 5 h dialysis
Description: as §4, §5, §6, §7, §8, §9

[8] = Single dose toxicity in rats, maximum tolerated dose
hERG potassium channel = hERG potassium channel (Homo sapiens (Human), UniProt Q12809); assay: hERG potassium channel inhibition, patch clamp in CHO hERG cells
hERG potassium channel, sequence (Q12809 whole entry): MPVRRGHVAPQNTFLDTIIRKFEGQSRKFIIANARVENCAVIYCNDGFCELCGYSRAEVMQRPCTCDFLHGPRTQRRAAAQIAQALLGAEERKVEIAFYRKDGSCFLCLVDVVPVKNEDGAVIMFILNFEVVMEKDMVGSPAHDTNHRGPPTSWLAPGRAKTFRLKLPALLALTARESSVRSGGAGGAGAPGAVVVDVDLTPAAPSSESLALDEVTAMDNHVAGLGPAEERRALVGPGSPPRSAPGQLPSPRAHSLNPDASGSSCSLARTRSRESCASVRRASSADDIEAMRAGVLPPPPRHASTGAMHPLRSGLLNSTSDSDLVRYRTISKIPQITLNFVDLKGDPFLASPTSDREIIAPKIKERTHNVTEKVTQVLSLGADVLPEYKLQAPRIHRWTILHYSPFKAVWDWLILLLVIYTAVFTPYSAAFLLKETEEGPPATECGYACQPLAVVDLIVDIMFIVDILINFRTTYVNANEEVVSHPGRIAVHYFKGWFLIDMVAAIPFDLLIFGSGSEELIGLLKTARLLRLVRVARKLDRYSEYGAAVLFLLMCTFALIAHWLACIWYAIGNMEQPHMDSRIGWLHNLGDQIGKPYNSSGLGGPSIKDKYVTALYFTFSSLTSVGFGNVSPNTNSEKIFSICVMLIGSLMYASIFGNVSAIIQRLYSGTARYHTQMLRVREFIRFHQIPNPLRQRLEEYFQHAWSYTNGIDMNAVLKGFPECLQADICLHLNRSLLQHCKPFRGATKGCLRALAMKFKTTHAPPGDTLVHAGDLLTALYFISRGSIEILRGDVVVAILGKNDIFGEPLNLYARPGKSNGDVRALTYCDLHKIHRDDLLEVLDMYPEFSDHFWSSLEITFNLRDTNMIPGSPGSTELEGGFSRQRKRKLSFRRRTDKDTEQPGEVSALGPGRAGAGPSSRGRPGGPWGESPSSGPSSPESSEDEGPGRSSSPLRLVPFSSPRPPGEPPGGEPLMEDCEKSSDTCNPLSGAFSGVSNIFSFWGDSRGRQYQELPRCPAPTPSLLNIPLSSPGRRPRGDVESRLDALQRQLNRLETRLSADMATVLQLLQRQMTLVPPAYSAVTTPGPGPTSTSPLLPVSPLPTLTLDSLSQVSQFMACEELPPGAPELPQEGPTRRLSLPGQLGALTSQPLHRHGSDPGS
Description: The cell line used for the patch clamp assay was a 10th generation CHO cell overexpressing hERG potassium channel cDNA. CHO hERG cells were cultured in Petri dishes or flasks at 37° C. in a 5% CO2 incubator. Cells were dropped onto circular slides 24-48 hours prior to electrophysiological experiments and cultured in cell culture medium and used for experiments after the cells had been adhered.
Cell culture medium (purchased from Invitrogen) Composition: • Ham's F12 medium • 10% (v/v) heat inactivated FBS • 100 μg/ml Hygromycin B (thaumatin) • 100 μg/ml Geneticin (Genomycin, G418)
Compound powders are dissolved in the extracellular solution and are subjected to a routine 5 to 10 minute sonication and shaking to ensure complete dissolution of the compound.
The final concentrations of compounds used for electrophysiological assays were 5, 20 μM and the final concentration of DMSO was 0.1%.
Cell membrane currents were recorded using a HEKA EPC-10 USB patch-clamp amplifier (HEKA Elektronik, Germany). • 1) A coverslip with a large number of uniformly growing individual CHO hERG cells on its surface was taken. Place in a continuous recording cell on an inverted microscope, perfused with extracellular fluid (approximately 1 ml per minute) and recorded continuously, waiting for the current to stabilize. • 2) Record HERG channel currents for individual cells using standard whole cell recording mode. The membrane voltage is first clamped at −80 mV and the cell is given a +20 mV stimulus for 5 s to activate the hERG potassium channel, then repolarized to −50 mV for 5 s to generate an outward tail current, which is continuously perfused until the current is stable, at which point the peak tail current is the control current value. • 3) The extracellular solution containing the drug to be tested was then perfused and recorded until the inhibitory effect of the drug on the hERG current reached a steady state, at which point the peak tail current was the post-drug current value. • 4) The cells are again perfused with the extracellular solution until the hERG current returns to or approaches the level prior to the addition of the drug, then the perfusion can be continued to test other concentrations or drugs. One or more compound or drug concentrations may be tested on each cell. • 5) Cisapride (C4740-10 mg, Sigma) is used as a positive control in the experiment to ensure that the cells used respond properly.

[9] = female rats, 200 mg/kg by gavage
[10] = female rats, 300 mg/kg by gavage
[11] = female rats, 400 mg/kg by gavage
[12] = female rats, 500 mg/kg by gavage

## C=CCn1c(=O)c2cnc(Nc3ccc(N4CCN(C)CC4)cc3)nc2n1-c1cccc(C(C)(C)O)n1 [AZD1775, reference compound]
BxPC3 cells
  IC50: 100 to 1000 nM
HT-29 cells
  IC50: 100 to 1000 nM
OVCAR-3 cells
  IC50: 100 to 1000 nM
HUVEC cells
  IC50: > 10000 nM
HK2 cells
  IC50: 260 nM
[1]
  fraction unbound at 5 h, 1 µM: 0.374
[2]
  fraction unbound at 5 h, 1 µM: 0.336
CYP1A2
  IC50: > 10000 nM
CYP2C9
  IC50: > 10000 nM
CYP2C19
  IC50: 1000 to 10000 nM
CYP2D6
  IC50: > 10000 nM
CYP2C8
  IC50: > 10000 nM
CYP 2B6
  IC50: > 10000 nM
[3]; female, 25 mg/kg
  Survival of Rats: 7/7
[3]; female, 75 mg/kg
  Survival of Rats: 0/7
[3]; male, 25 mg/kg
  Survival of Rats: 7/7
[3]; male, 75 mg/kg
  Survival of Rats: 1/7
[4]
  fraction unbound at 5 h, 1 µM: 0.087

## [2H][C@]1(O)c2nc(-n3c4nc(Nc5ccc(N6CCC7(CCN(C)CC7)CC6)cc5)ncc4c(=O)n3CC=C)ccc2CCC12CC2 [Compound 37b]
Plasma protein [5]
  Plasma Protein binding (PPB) Rat: 84.10%
Plasma protein [6]
  Plasma Protein binding (PPB) Human: 77.58%
Plasma protein [7]
  Plasma Protein binding (PPB) Mouse: 92.46%
[8]; [9]
  Death Numbers: 0
  Death Rate: 0%
[8]; [10]
  Death Numbers: 0
  Death Rate: 0%
[8]; [11]
  Death Numbers: 3
  Death Rate: 60%
[8]; [12]
  Death Numbers: 2
  Death Rate: 67%
[8]; male rats, 200 mg/kg by gavage
  Death Numbers: 0
  Death Rate: 0%
[8]; male rats, 300 mg/kg by gavage
  Death Numbers: 0
  Death Rate: 0%
[8]; male rats, 400 mg/kg by gavage
  Death Numbers: 2
  Death Rate: 40%
[8]; male rats, 500 mg/kg by gavage
  Death Numbers: 2
  Death Rate: 40%
hERG potassium channel; test concentration 5 μM
  hERG Inhibition: 18.00 ± 4.80%
hERG potassium channel; test concentration 20 μM
  hERG Inhibition: 34.70 ± 4.40%
